Measured values published in PubChem BioAssay (NCI).
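Tested at 5 concentrations; 48 h exposure; 96-well plates; endpoints linearly interpolated, else capped at highest concentration. TGI marks complete inhibition of growth.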

Assays:
Test in all cases: NCI tumour cell line growth inhibition, 48 h
IGROV1 ovarian = test system: IGROV1 ovarian
COLO 205 colon = test system: COLO 205 colon
SK-MEL-5 melanoma = test system: SK-MEL-5 melanoma
SK-MEL-28 melanoma = test system: SK-MEL-28 melanoma
A549 NSCLC = test system: A549 NSCLC
OVCAR-5 ovarian = test system: OVCAR-5 ovarian
NCI-H23 lung = test system: NCI-H23 lung
ACHN renal = test system: ACHN renal
NCI-H226 lung = test system: NCI-H226 lung
MOLT-4 leukemia = test system: MOLT-4 leukemia
CAKI-1 renal = test system: CAKI-1 renal
MALME-3M melanoma = test system: MALME-3M melanoma
HOP-92 NSCLC = test system: HOP-92 NSCLC
CCRF-CEM leukemia = test system: CCRF-CEM leukemia
TK-10 renal = test system: TK-10 renal
UACC-62 melanoma = test system: UACC-62 melanoma
NCI/ADR-RES ovarian = test system: NCI/ADR-RES ovarian
SF-295 CNS = test system: SF-295 CNS
RXF 393 renal = test system: RXF 393 renal
SF-268 CNS = test system: SF-268 CNS

SMILES | TGI (IGROV1 ovarian) [µM] | TGI (COLO 205 colon) [µM] | TGI (SK-MEL-5 melanoma) [µM] | TGI (SK-MEL-28 melanoma) [µM] | TGI (A549 NSCLC) [µM] | TGI (OVCAR-5 ovarian) [µM] | TGI (NCI-H23 lung) [µM] | TGI (ACHN renal) [µM] | TGI (NCI-H226 lung) [µM] | TGI (MOLT-4 leukemia) [µM] | TGI (CAKI-1 renal) [µM] | TGI (MALME-3M melanoma) [µM] | TGI (HOP-92 NSCLC) [µM] | TGI (CCRF-CEM leukemia) [µM] | TGI (TK-10 renal) [µM] | TGI (UACC-62 melanoma) [µM] | TGI (NCI/ADR-RES ovarian) [µM] | TGI (SF-295 CNS) [µM] | TGI (RXF 393 renal) [µM] | TGI (SF-268 CNS) [µM]
Cc1ccc(Nc2nc(N)nc3c2ncn3C2OC(CO)C(O)C2O)cc1 (stereo unspecified) | > 100 | > 100 | > 100 | > 100 | > 100 | > 100 | > 100 | > 100 | > 100 | > 100 | > 100 | > 100 | > 100 | > 100 | > 100 | > 100 | > 100 | > 100 | > 100 | –
NC(CCP(=O)(O)CCC1C=CC=CC1)C(=O)O (stereo unspecified) | > 100 | > 100 | > 100 | > 100 | > 100 | > 100 | > 100 | > 100 | – | > 100 | > 100 | – | > 100 | > 100 | > 100 | > 100 | > 100 | > 100 | > 100 | > 100
CC(C)(C)[Si](C)(C)OCC1CCC(n2cnc3c(N)ncnc32)O1 (stereo unspecified) | > 100 | > 100 | 34.4 | > 100 | – | > 100 | > 100 | – | > 100 | > 100 | > 100 | – | > 100 | > 100 | > 100 | > 100 | – | > 100 | > 100 | –
CC1=CC(=O)C(=O)C2=C1OC1(C2)C(C)CCC2C3(C)CCC(O)C(C)(C)C3CCC21C (stereo unspecified) | 34.2 | 32.6 | 33.4 | 42.9 | > 100 | 37.2 | 31.3 | 31.9 | 35.5 | 78.4 | 33.8 | 35.3 | 33.1 | 65.2 | 34.5 | 36.1 | – | 35.3 | 33.2 | 63
N=C(N)c1csc([C@@H]2O[C@H](CO)[C@@H](O)[C@H]2O)n1 | > 100 | – | > 100 | > 100 | > 100 | – | > 100 | > 100 | > 100 | > 100 | > 100 | > 100 | – | > 100 | > 100 | – | – | > 100 | > 100 | > 100
